# Measured values from US20200392116A1, “SUBSTITUTED HETEROCYCLES AS c-MYC TARGETING AGENTS” (NORTHWESTERN UNIVERSITY, priority 2019, published 2020).
# Assay: Potency code of Table 2 (assay not stated)
row,Compound,Potency code
1,CN/N=C(/C)c1ccc(-c2c(OCc3ccc(Cl)cc3)ccc(-c3cc(C(F)(F)F)[nH]n3)c2O)cc1 [NUCC-0198395],+ (>40 +)
2,COc1cccc(-c2c(-c3ccc(OCc4ccc(Cl)cc4)cc3O)nn(C)c2C)c1 [NUCC-0198314],+ (>40 +)
3,CCc1ccc(Oc2c(-c3ccc(OCc4cccc(OC)c4)cc3O)n[nH]c2C(F)(F)F)cc1 [NUCC-0196297],+ (>40 +)
4,COc1ccc(-c2cn(C)nc2-c2ccc(OCc3ccc(Cl)cc3)cc2O)cc1 [NUCC-0198305],+ (>40 +)
5,CCOC(=O)c1cc(-c2ccc(OCc3ccc(Cl)cc3)c(-c3ccc(C#N)cc3)c2O)n[nH]1 [NUCC-0200489],+ (>40 +)
6,Oc1cc(OCc2ccc(Cl)cc2)ccc1-c1n[nH]cc1Oc1ccccc1Cl [NUCC-0196343],+ (>40 +)
7,Cn1nc(-c2ccc(OCc3ccc(Cl)cc3)cc2O)c(Oc2ccccc2Cl)c1C(F)(F)F [NUCC-0196304],+++ (10-30 +++)
8,Cc1ccc(-c2cn(C)nc2-c2ccc(OCc3ccc(Cl)cc3)cc2O)cc1 [NUCC-0196346],+ (>40 +)
9,CCCCOc1ccc(-c2cc(C(F)(F)F)nn2C)c(O)c1-c1cc(C(F)(F)F)cc(C(F)(F)F)c1 [NUCC-0201651],+ (>40 +)
10,N#Cc1ccc(-c2c(OCc3ccc(Cl)cc3)ccc(-c3cc(C(F)(F)F)[nH]n3)c2O)cc1 [NUCC-0198391],++++ (<10 ++++)
11,COc1ccc(CCOc2ccc(-c3cc(C(F)(F)F)n(C)n3)c(O)c2-c2cc(C(F)(F)F)cc(C(F)(F)F)c2)cc1 [NUCC-0201029],+ (>40 +)
12,CCCCOc1ccc(-c2cc(C(F)(F)F)n(C)n2)c(O)c1-c1ccc(Cl)c(C(F)(F)F)c1 [NUCC-0201227],++++ (<10 ++++)
13,Cn1nc(C(F)(F)F)cc1-c1ccc(OCc2ccc(Cl)cc2)c(-c2cncc(C#N)c2)c1O [NUCC-0201632],+++ (10-30 +++)
14,COc1ccc(-c2cc(C(F)(F)F)[nH]n2)c(O)c1-c1cc(C(F)(F)F)cc(C(F)(F)F)c1 [NUCC-0201220],++++ (<10 ++++)
15,Oc1ccc(OCc2ccc(Cl)cc2)cc1-c1[nH]nc(C(F)(F)F)c1-c1ccc(F)cc1 [NUCC-0200575],++++ (<10 ++++)
16,N#Cc1cccc(-c2c(OCc3ccc(Cl)cc3)ccc(-c3cc(C(N)=O)[nH]n3)c2O)c1 [NUCC-0200557],+ (>40 +)
17,CCc1ccc(Oc2c(-c3ccc(OCCc4ccc(Cl)cc4)cc3O)n[nH]c2C(F)(F)F)cc1 [NUCC-0196357],+++ (10-30 +++)
18,Oc1c(-c2cc(C(F)(F)F)[nH]n2)ccc(OCc2ccc(Cl)cc2)c1-c1cccnc1 [NUCC-0196366],+ (>40 +)
19,Cn1nc(-c2ccc(OCc3ccc(Cl)cc3)cc2O)cc1C(F)(F)F [NUCC-0196314.2],+ (>40 +)
20,Cn1nc(C(F)(F)F)cc1-c1ccc(O)cn1 [NUCC-0200687],+ (>40 +)
21,O=C(CCc1cn(CCOCCOCCOCC(=O)Nc2cccc3c2C(=O)N(C2CCC(=O)NC2=O)C3=O)nn1)NCCOc1ccc(-c2cc(C(F)(F)F)n[nH]2)c(O)c1-c1cncc(C(F)(F)F)c1 (stereo not shown) [NUCC-0201660],+ (>40 +)
22,CCc1[nH]nc(-c2ccc(OCc3ccc(Cl)cc3)cc2O)c1-c1cccc(OC)c1 [NUCC-0198315],+ (>40 +)
23,Oc1cc(OCc2ccc(Cl)cc2)ccc1-c1n[nH]cc1-c1cc(C(F)(F)F)cc(C(F)(F)F)c1 [NUCC-0198318],++ (30-40 ++)
24,Cn1cc(-c2ccc(OCc3ccc(Cl)cc3)cc2C=O)c(C(F)(F)F)n1 [NUCC-0200815],+ (>40 +)

row,Compound,Potency code
1,Cn1cc(-c2ccc(F)cc2)c(-c2ccc(OCc3ccc(Cl)cc3)cc2O)n1 [NUCC-0196349],+ (>40 +)
2,Cc1ccccc1-c1cn(C)nc1-c1ccc(OCc2ccc(Cl)cc2)cc1O [NUCC-0198356],+ (>40 +)
3,Oc1c(-c2cc(C(F)(F)F)[nH]n2)ccc(OCc2ccc(Cl)cc2)c1-c1ccsc1 [NUCC-0201909],+ (>40 +)
4,Cn1nc(C(F)(F)F)cc1-c1ccc(OCc2ccc(Cl)cc2)c(-c2ccc(C(N)=O)cc2)c1O [NUCC-0198409],+ (>40 +)
5,CCOc1ncc(C(F)(F)F)cc1-c1c(OCc2ccc(Cl)cc2)ccc(-c2cc(C(F)(F)F)n[nH]2)c1O [NUCC-0201039],+++ (10-30 +++)
6,Cn1nc(-c2ccc(OCc3ccc(Cl)cc3)c(-c3cc(C(F)(F)F)cc(C(F)(F)F)c3)c2O)cc1C(F)(F)F [NUCC-0196360],+ (>40 +)
7,Cn1nc(-c2ccc(OCCCNC(=O)OC(C)(C)C)c(-c3cncc(C(F)(F)F)c3)c2O)cc1C(F)(F)F [NUCC-0201656],+ (>40 +)
8,Cc1[nH]nc(-c2ccc(OCc3ccc(Cl)cc3)cc2O)c1-c1ccccc1 [NUCC-0198298],+ (>40 +)
9,Cc1ccc(C)c(Oc2c[nH]nc2-c2ccc(OCc3ccc(Cl)cc3)cc2O)c1 [NUCC-0196284],+ (>40 +)
10,Cn1nc(-c2ccc(OCc3ccc(Cl)cc3)c(-c3cccnc3)c2O)cc1C(F)(F)F [NUCC-0196364],+ (>40 +)
11,Cc1ccc(C)c(Oc2cn(C)nc2-c2ccc(OCc3ccc4ccccc4c3)cc2O)c1 [NUCC-0196291],+ (>40 +)
12,Oc1cc(Nc2ccc(-n3ccnc3)cc2)ccc1-c1cc(C(F)(F)F)[nH]n1 [NUCC-0200569],+ (>40 +)
13,Cn1nc(-c2ccc(OCc3ccc(Cl)cc3)c(-c3cccc(C#N)c3)c2O)cc1C(N)=O [NUCC-0200558],++++ (<10 ++++)
14,Cn1cc(-c2cccc(Cl)c2)c(-c2ccc(OCc3ccc(Cl)cc3)cc2O)n1 [NUCC-0196351],+ (>40 +)
15,Oc1c(-c2cc(C(F)(F)F)[nH]n2)ccc(OCc2ccc(Cl)cc2)c1C1CC1 [NUCC-0201910],+ (>40 +)
16,CCc1c(-c2ccccc2)c(-c2ccc(OCc3ccc(Cl)cc3)cc2O)nn1C [NUCC-0198303],+ (>40 +)
17,CCc1ccc(Oc2c[nH]nc2-c2ccc(OCc3ccc(Cl)cc3)cc2O)cc1 [NUCC-0176243],+ (>40 +)
18,CCc1ccc(Oc2c(-c3ccccc3O)nn(C)c2C(F)(F)F)cc1 [NUCC-0200684],+ (>40 +)
19,CCc1ccc(Oc2c(-c3ccc(OCc4ccc(OC)cc4)cc3O)nn(C)c2C(F)(F)F)cc1 [NUCC-0196358],+ (>40 +)
20,COc1ccc(-c2c(-c3ccc(OCc4ccc(Cl)cc4)cc3O)n[nH]c2C(F)(F)F)cc1OC [NUCC-0196283],++++ (<10 ++++)
21,Oc1c(-c2cc(C(F)(F)F)[nH]n2)ccc(OCc2ccc(Cl)cc2)c1-c1ccoc1 [NUCC-0198325],+ (>40 +)
22,Cn1cc(-c2ccc(NCc3ccc(Cl)cc3)cn2)c(C(F)(F)F)n1 [NUCC-0200742],+ (>40 +)
23,C#CCOc1cccc2c1C(=O)N(C1CCC(=O)NC1=O)C2=O (stereo not shown) [NUCC-0201705],+ (>40 +)
24,CCc1ccc(Oc2c(-c3ccc(OCCc4cccc(C(F)(F)F)c4)cc3O)n[nH]c2C(F)(F)F)cc1 [NUCC-0176245],++ (30-40 ++)

row,Compound,Potency code
1,Cn1nc(-c2ccc(OCCN)c(-c3ccc(Cl)c(C(F)(F)F)c3)c2O)cc1C(F)(F)F [NUCC-0201641],+ (>40 +)
2,CS(=O)(=O)c1cccc(-c2c(OCc3ccc(Cl)cc3)ccc(-c3cc(C(F)(F)F)n[nH]3)c2O)c1 [NUCC-0201036],++ (30-40 ++)
3,Oc1c(-c2cc(C(F)(F)F)[nH]n2)ccc(OCc2ccc(Cl)cc2)c1-c1ccc(C(F)(F)F)c(Cl)c1 [NUCC-0200728],+ (>40 +)
4,CC(C)CCOc1ccc(-c2cc(C(F)(F)F)[nH]n2)c(O)c1-c1cncc(C(F)(F)F)c1 [NUCC-0201636],+ (>40 +)
5,CCc1ccc(Oc2c(-c3ccc(OCc4ccc(Cl)cc4)cc3)nn(C)c2C(F)(F)F)cc1 [NUCC-0196353],+ (>40 +)
6,Cn1nc(-c2ccc(OCc3ccc(Cl)cc3)c(-c3cccc(C#N)c3)c2O)cc1C(F)(F)F [NUCC-0198400],+ (>40 +)
7,CC(C)CCOc1ccc(-c2cc(C(F)(F)F)nn2C)c(O)c1-c1cncc(C(F)(F)F)c1 [NUCC-0201206],++++ (<10 ++++)
8,CCc1ccc(Oc2c[nH]nc2-c2ccc(OCC3CCCCC3)cc2O)cc1 [NUCC-0176256],+ (>40 +)
9,Oc1c(-c2cc(C(F)(F)F)[nH]n2)ccc(OCc2ccc(Cl)cc2)c1-c1ccc(C(F)(F)F)cc1 [NUCC-0200725],+ (>40 +)
10,COc1ccc(-c2c(C)nn(C)c2-c2ccc(OCc3ccc(Cl)cc3)cc2O)cc1 [NUCC-0198306],+ (>40 +)
11,CCCCOc1ccc(-c2cc(C(F)(F)F)n[nH]2)c(O)c1-c1cncc(C#N)c1 [NUCC-0201193],++++ (<10 ++++)
12,Cn1nc(-c2ccc(OCc3cccnc3)c(-c3cc(C(F)(F)F)cc(C(F)(F)F)c3)c2O)cc1C(F)(F)F [NUCC-0201023],+ (>40 +)
13,Cn1cc(Oc2ccccc2Cl)c(-c2ccc(OCc3ccc(Cl)cc3)cc2O)n1 [NUCC-0196305],++++ (<10 ++++)
14,Cn1nc(C(F)(F)F)cc1-c1ccc(OCc2ccc(Cl)cc2)c(-c2ccc(C#N)cc2)c1O [NUCC-0198392],+ (>40 +)
15,Oc1cc(OCc2ccc(Cl)cc2)ccc1-c1cc(C(F)(F)F)n(Cc2ccccc2)n1 [NUCC-0200499],+ (>40 +)
16,Cn1nc(-c2ccc(OCc3ccc(C#N)cc3)c(-c3ccc(Cl)c(C(F)(F)F)c3)c2O)cc1C(F)(F)F [NUCC-0201912],+ (>40 +)
17,Oc1cc(NCc2ccc(Cl)cc2)ccc1-c1cc(C(F)(F)F)[nH]n1 [NUCC-0200493],+ (>40 +)
18,Nc1ccc(COc2ccc(-c3cc(C(F)(F)F)n[nH]3)c(O)c2-c2cc(C(F)(F)F)cc(C(F)(F)F)c2)cc1 [NUCC-0201201],++++ (<10 ++++)
19,CCCCOc1ccc(-c2cc(C(F)(F)F)[nH]n2)c(O)c1-c1cncc(C(F)(F)F)c1 [NUCC-0201637],+ (>40 +)
20,CCc1ccc(Oc2c(-c3ccc(OCc4ccc(Cl)cc4)cc3OC)nn(C)c2C(F)(F)F)cc1 [NUCC-0196352],+ (>40 +)
21,Cn1nc(C(F)(F)F)cc1-c1ccc(OCc2ccc(Cl)cc2)cc1C(N)=O [NUCC-0200816],+ (>40 +)
22,COc1ccc(-c2c(-c3ccc(OCc4ccc(Cl)cc4)cc3O)n[nH]c2C(F)(F)F)cc1 [NUCC-0196312],+ (>40 +)
